Test results: patent US9943500B2, “Methods of treating topical microbial infections” (LUODA PHARMA PTY LIMITED, priority 2013, dated 2018)
≈ marks a conversion by molar mass, not a printed value. Where two headings read alike, the source gives them in different places.

Key:
[1] = cited from earlier work
[2] = dogs; cited from earlier work
[3] = test system: methicillin-sensitive and methicillin-resistant strains of Staphylococcus; assay: Minimum bactericidal concentration determination, Staphylococcus isolates (Example 1); settings: for bactericidal activity (MBC testing): lower concentrations; for strain type for which bactericidal activity was more consistent: methicillin-sensitive versus methicillin-resistant strains
Description: Following determination of the MIC using the 96 well MIC plate, a variation of the drop plate method was used to determine minimum bactericidal concentration (MBC) for each of the test compounds. These were analysed using samples taken from the MIC plate following incubation. […] Each concentration was pipetted in duplicate with duplicates being pipetted on an inner ring of drops. The plates were incubated at 37° C. overnight and assessed the following day for growth. The MBC was defined as the concentration at which 99.9% of colonies were eradicated, which was visually assessed by a lack of growth on the agar where the drop was placed.

[4] = test system: 51 Australian bovine mastitis isolates, primarily S. aureus, S. agalactiae and S. uberis; assay: Minimum inhibitory concentration assay, bovine mastitis isolates (Example 3); assay type: cell-based; settings: all 51 isolates
Source text: Fifty-one dairy bovine mastitis isolates, encompassing a variety of bacterial species, were isolated from milk samples collected from dairy farms in rural South Australia by the University of Adelaide Ambulatory Clinic. Cellular morphology observed from Gram stains and catalase testing was used to differentiate Staphylococcus, Streptococcus and Corynebacterium species from Gram-negative species. Further biochemical testing including coagulase, Lancefield grouping, esculin hydrolysis and CAMP tests were used to identify the isolates to species level. Where biochemical test results were not definitive in identifying species, amplification and sequencing of the 16S ribosomal RNA gene was used to confirm the identity of the isolates.
Minimum inhibitory concentration tests were performed in the manner outlined by the CLSI (CLSI 2012). Test compounds were dispensed into a 96-well microtitre tray containing 90 μl of CAMHB in 90 μl volumes and serial diluted to obtain a concentration gradient ranging from 128 μg/ml to 0.25 μg/ml (see FIG. 24). For Streptococcus species, CAMHB was replaced with a CAMHB supplement with 4% lysed-sheep blood (4% LSB:CAMHB). 4% LSB:CAMHB was prepared by mixing 5 ml sheep blood to 5 ml milliQ water, and repeated freezing at −20° C. and thawing, followed by centrifuged for 20 min at 7000 rpm. 7 ml of the supernatant was removed and added to 93 mL of CAMB.
Bacterial suspensions were prepared by emulsifying fresh colonies obtained from an overnight culture on Sheep Blood Agar (SBA) in 4 mls of 9.1 g/l physiological saline to an optical density read at 600 nm (OD600 nm) between 1.00 and 1.20. Standardised bacterial suspensions were diluted 1:10 in physiological saline and dispensed into all wells, excluding the negative control wells, in 10 μL volumes giving a final concentration of between 4×10^5 and 5×10^5 CFU/mL in each well. 96-well microtitre trays were incubated for 24 hours at 37° C. in 5% CO2 and then assessed both visually and using OD readings from a microplate reader at a wavelength of 600 nm. These tests were performed in duplicate and repeated if discrepancies in MIC values were observed between replicates.
The minimum inhibitory concentration (MIC) was determined to be the lowest concentration of antibiotic that prevented growth of bacteria both visually and using OD readings. MIC values were collated and used to determine the lowest concentration of each compound effective against 50% and 90% of isolates, known as the MIC50 and MIC90 respectively. These values as well as the range of MIC values were then used for direct comparisons between test compounds and for general comparisons with ampicillin.

[5] = test system: methicillin sensitive and methicillin-resistant staphylococci; assay: Minimum inhibitory concentration assay, 42 Staphylococcus isolates (Example 1); assay type: cell-based
Description: Forty-two isolates of Staphylococcus of varying species and strain type were collected from isolate collections. Biochemical testing including coagulase, latex agglutination testing for protein A, Vogues-Proskauer tests and resistance to polymyxin B were used to identify the species of Staphylococcus. All isolates were also screened for resistance to various antimicrobials commonly used for the treatment of skin infections. This was performed using the disk diffusion method and resistance standards as outlined by the CLSI. The following antimicrobials were used: amoxicillin-clavulanic acid (30 μg), cephalothin (30 μg), clindamycin (2 μg), enrofloxacin (5 μg), erythromycin (15 μg), gentamicin (10 μg), imipenem (10 μg), oxacillin (1 μg), penicillin G (10 units), tetracycline (30 μg), 1:19 trimethoprim-sulfamethoxazole (25 μg) and vancomycin (30 μg).
Minimum inhibitory concentration tests were performed according to CLSI Standards (CLSI 2012). 90 μL of one of the test compound solutions, or ampicillin, was added to the end column of a 96 well plate that contained 90 μL of CAMHB in each well. The solutions were then serially diluted across the row, leaving 2 columns for positive and negative controls (FIG. 2). A bacterial suspension was prepared by adding fresh colonies obtained from an overnight culture on Sheep Blood Agar (SBA) to a 9.1 g/L saline solution. This suspension was adjusted to a concentration of between 4×10^8 and 5×10^8 CFU/mL. […] 1 mL of this suspension was added to 9 mL of saline before being added to all wells, excluding the negative control wells, in 10 μL volumes giving a final concentration of between 4×10^5 and 5×10^5 CFU/mL in each well. The tests were then incubated for 24 hours at 37° C. and then assessed both visually and using OD readings from a microplate reader at a wavelength of 600 nm. These tests were performed in duplicate but repeated if discrepancies were observed.
The minimum inhibitory concentration (MIC) was determined to be the lowest concentration of antibiotic that prevented growth of bacteria both visually and using OD readings. Direct statistical comparisons between the test compounds and ampicillin could not be performed in light of confidential information restrictions, such as restrictions on disclosure of information relating to the compound structure, such as molecular weight. Instead, MIC values were collated and used to determine the lowest concentration of each compound that was effective against 50% and 90% of isolates, referred to as the MIC50 and MIC90 respectively. These values as well as the range of MIC values were then used for direct comparisons between test compounds and for general comparisons with ampicillin.

MRSA 9 = assay: Macrodilution time-kill assay (viable counts); settings: 24 hours
Description: (§1) Due to the detection limit of the OD measurements, the time-kill assays were also performed in macrodilution. In 15 mL tubes, 9 mL volumes of the test compounds in CAMHB were prepared at one, four and eight times the MIC concentration and 9 mL volumes of ampicillin were prepared in CAMHB at one and four times the MIC. 1 mL of a 4 to 5×10^6 bacterial suspension (as prepared for MIC testing) was added to each of the tubes as well as a growth control tube containing only 9 mL of CAMHB. These tubes were incubated at 37° C. in an orbital shaker rotating at 100 rpm for 24 hours. At 0, 1, 4, 8, 12 and 24 hours after addition of the bacteria, 100 μL samples were removed from each tube and serial diluted in 9.1 g/L saline solution. The dilutions were then plated in duplicate onto plate count agar and incubated for 24 hours at 37° C. After incubation, viable counts were obtained from the number of colonies visible on the agar and these were used to calculate the number of CFU/mL at each time point. For the macrodilution time-kill analysis, only the ATCC 49775 reference strain and MRSA 9 were assessed in order to further investigate the antibacterial activity against methicillin-resistant strains. These macrodilution time-kill assays were independently repeated and bactericidal activity was defined as a ≥3 log decrease in the number of CFU/mL.

[6] = test system: ATCC 49775 reference strain; assay: Microdilution time-kill assay (optical density); settings: 48 hour period; one, four and eight times the MIC
Description: Time-kill assays were performed according to the M26-A guidelines of the CLSI, with modifications. The test compounds and ampicillin were serial diluted in CAMHB across the rows of a 96 well plate and a bacterial suspension was prepared and added in the same manner as the MIC testing. The 96 well plates were then incubated at 37° C. for 48 hours being removed at specific time points and OD for the positive control wells as well as one, four and eight times the MIC of the compound specific to the strain being tested were assessed using a spectrophotometer at a wavelength of 600 nm. The time points assessed were 0, 1, 2, 4, 8, 12, 24 and 48 hours after the addition of the bacterial suspension to the wells. Each test compound was tested in triplicate while ampicillin was tested in duplicate and this test was independently repeated. […] One strain from each of the categories of Staphylococcus in the isolate collection (methicillin-sensitive, methicillin resistant and coagulase negative) were selected as well as the ATCC reference strain for comparison. These strains were strains MSS 1, MSS 11, MRSA 9 and the ATCC 49775 reference strain.

[7] = test system: ATCC 49775 reference strain; assay: Macrodilution time-kill assay (viable counts); settings: 24 hours
Description: as §1

Compound | bactericidal activity (MBC testing) [3] | strain type for which bactericidal activity was more consistent [3] | MIC90 ([4]; read-out: MIC90) [µg/mL] | MIC50 and MIC90 values compared with ampicillin [5] | also measured
CC[C@@H](C(=O)[C@@H](C)[C@@H](O)[C@H](C)[C@@H]1O[C@@H]([C@@H](CC)C(=O)O)CC[C@@H]1C)[C@H]1O[C@]2(C=C[C@@H](O)[C@]3(CC[C@@](C)([C@H]4CC[C@](O)(CC)[C@H](C)O4)O3)O2)[C@H](C)C[C@@H]1C [LP 1088, Salinomycin] | some bactericidal activity in lower concentrations | more consistently for methicillin-sensitive strains | 2 (≈ 2.66 µM) | considerably lower than ampicillin | toxicity after accidental exposure ([1]; accidental inhalation and swallowing of about 1 mg/kg, human): severe acute and chronic salinomycin toxicity; acceptable daily intake (ADI) ([1]; humans, European Food Safety Authority risk assessment): 5 µg/kg; daily intake leading to neurotoxic effects (myelin loss, axonal degeneration) [2]: more than 500 μg/kg
CC[C@@H](C(=O)O)[C@@H]1O[C@@H]([C@@H](C)[C@H](O)[C@H](C)C(=O)[C@H](CC)[C@H]2O[C@]3(C=C[C@@H](O)[C@]4(CC[C@@](C)([C@H]5CC[C@](O)(CC)[C@H](C)O5)O4)O3)[C@H](C)C[C@@H]2C)[C@@H](C)C[C@@H]1C [LP 4525, Narasin] | – | – | – | – | MIC50 [4]: 0.25 µg/mL (≈ 0.327 µM); MIC90 [4]: 1 µg/mL (≈ 1.31 µM)
CO[C@@H]1[C@@H](OC)[C@H](C)[C@@](O)(CC(=O)O)O[C@H]1[C@H](C)[C@H]1O[C@@]2(CC[C@@](C)([C@H]3CC[C@@](C)([C@@H]4O[C@@H]([C@H]5O[C@](C)(O)[C@H](C)C[C@@H]5C)C[C@@H]4O[C@@H]4C[C@H](OC)[C@@H](OC)[C@H](C)O4)O3)O2)C[C@H](O)[C@H]1C [LP 6315, Maduramicin] | some bactericidal activity in lower concentrations | more consistently for methicillin-sensitive strains | 4 (≈ 4.36 µM) | considerably lower than ampicillin | decrease in colonies (MRSA 9; four times the MIC): > 3 log10; growth (optical density) compared to growth control [6]: prevented the growth; MBC50 rank among test compounds ([3]; methicillin-resistant isolates): lowest MBC50 values; bactericidal or bacteriostatic (time-kill) ([7]; most concentrations, ATCC 49775 and MRSA 9): bacteriostatic
CC[C@@]1([C@@H]2O[C@@H]([C@H]3O[C@@](O)(CO)[C@H](C)C[C@@H]3C)C[C@@H]2C)CC[C@H]([C@]2(C)CC[C@]3(C[C@H](O)[C@@H](C)[C@@H]([C@@H](C)[C@@H](OC)[C@H](C)C(=O)O)O3)O2)O1 [LP 9666, Monensin] | – | – | 128 (≈ 191 µM) | considerably lower than ampicillin | –
CC1(C)S[C@@H]2[C@H](NC(=O)[C@H](N)c3ccccc3)C(=O)N2[C@H]1C(=O)O [ampicillin] | – | – | – | – | decrease in the number of viable bacteria (MRSA 9; all concentrations tested): > 3 log10; decrease in the number of viable bacteria ([7]; all concentrations tested): > 3 log10
Narasin [LP 4525] | some bactericidal activity in lower concentrations | more consistently for methicillin-sensitive strains | – | considerably lower than ampicillin | –
